These results are taken from patent US20130060024A1, “Compounds useful for treating neurodegenerative disorders” (SATORI PHARMACEUTICALS, INC., priority 2011, published 2013).

Like-named read-outs stand apart in the source and are kept apart here.

Common to all, as to assay type: cell-based
One assay deals with Aβ-42. The assay can be described thus: Aβ-42 MSD 3-PLEX ELISA, conditioned media of 2B7 cells. The conditions noted are these: Homo sapiens. The method, then: (§1) Assays were conducted to determine the ability of a Compound of Formula I to modulate […], […], and Aβ-38. Human (6E10) Ab 3-PLEX ELISA kits were purchased from Meso Scale Discovery Labs, 9328 Gaither Road, Gaithersburg, Md. 20877 (Catalog Number […]-3). Plates with capture antibodies were blocked for 1-2 hours at room temperature with 150 μL of the manufactures blocking reagent. Cultured 2B7 cells in 96 well plate with 250 μL of media per well until confluent; Prepared serial dilutions of compounds in DMSO at 100× the final desired concentration; Washed wells with 2B7 cells 1× with 250 μL of media; Diluted DMSO stocks 1:100 into media: Added 250 μL of media containing compounds (1% DMSO) to wells with 2B7 cells for 5 hours at 37° C. Diluted conditioned media: 1 part media with 1% DMSO and 1 part blocking buffer; 150 μL of the 250 μL of conditioned media were used. Seven point standard curve samples were prepared that contained Aβ-42, Aβ-40, and Aβ-38. The highest concentration of Aβ-42 and Aβ-38 was 3,000 pg/mL and the highest concentration of Aβ-40 was 10,000 pg/mL. Subsequent serial dilutions were 1:3 and the final composition of each sample was 1 part blocking buffer and 1 part cell medium containing 1% DMSO. Blocked plates are washed 5× with MSD wash buffer with a plate washer; 25 μL of detection antibody and blocker G reagent in MSD blocking solution was added; 25 μL of samples (1 part conditioned media containing 1% DMSO and 1 part MSD blocking buffer) were then added; Plates were incubated overnight at 4 degrees C. or 2 hours at room temperature. Washed wells 5× with MSD wash buffer; Added 150 μL 2×MSD read buffer; Read with MSD imager. Aβ peptide levels for each peptide were calculated from the standard curve using the MSD software provided with the MSD 2400 Imager. Percent vehicle values for each compound dosage were then calculated and fit to a 4 parameter curve generating IC50 values.
In general terms: An ELISA detects its analyte on a solid surface through an enzyme-linked reagent.

A further assay concerns Aβ-38. In words: Aβ-38 MSD 3-PLEX ELISA, conditioned media of 2B7 cells. The conditions noted are these: Homo sapiens; 2B7 cells, 5 hours at 37° C., 1% DMSO; read-out: Aβ 38 IC50. The protocol: as §1
A further assay deals with Aβ-40. The assay can be described thus: Aβ-40 MSD 3-PLEX ELISA, conditioned media of 2B7 cells. To be noted: Homo sapiens; 2B7 cells, 5 hours at 37° C., 1% DMSO; read-out: Aβ 40 IC50. The method, then:
as §1

[1] abbreviates: 5 h, read-out: Aβ 42 DR IC50 Inflection.
Setting [2] is: 2B7 cells, 5 hours at 37° C., 1% DMSO, read-out: Aβ 42 IC50.

As a reminder, the IC50 is the concentration that gives 50% inhibition. In the case of `CCO[C@@H]([C@H]1C[C@@H](C)[C@H]2[C@H](O1)[C@H](O)[C@@]1(C)[C@@H]3CC[C@H]4C(C)(C)[C@@H](OC(=O)NCCN5CC(F)(F)C5)CC[C@@]45C[C@@]35CC[C@]21C)C(C)(C)O` [Compound I-18], the IC50 in the assay on Aβ-42 (setting [1]) is 100 to 500 nM; in the assay on Aβ-42 (setting [2]) it was 100 to 500 nM; in the assay with Aβ-38 it was 501 to 1000 nM; with Aβ-40, above 5000 nM.

For the molecule `CCO[C@@H]([C@H]1C[C@@H](C)[C@H]2[C@H](O1)[C@H](O)[C@@]1(C)[C@@H]3CC[C@H]4C(C)(C)[C@@H](OC(=O)NC5CN(C6CCC6)C5)CC[C@@]45C[C@@]35CC[C@]21C)C(C)(C)O` [Compound I-22], the IC50 in the assay with Aβ-42 (setting [1]) lay within 100 to 500 nM; in the assay with Aβ-42 (setting [2]), 100 to 500 nM; in the assay with Aβ-38 it was 501 to 1000 nM; in the assay with Aβ-40, 1000 to 5000 nM.
